ChEMBL document CHEMBL1201862, “PubChem BioAssay data set” (2004)
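96-well plates; 48 h exposure; 5 concentrations. Endpoints by linear interpolation between flanking doses. Not reached: highest tested concentration assigned. Here, GI50 denotes the concentration required for 50% inhibition of growth.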 The source made the active and inactive calls. No stated cut-off is given here; in the data, active = GI50 up to about 1.1 µM and inactive = higher.

Key:
Assay in all cases: growth of human tumour cells (NCI), 48 h
[1] = system: SK-MEL-5
[2] = system: SF-295
[3] = system: HOP-62
[4] = system: UACC-257
[5] = system: HOP-92
[6] = system: SK-MEL-2
[7] = system: 786-0
[8] = system: OVCAR-4
[9] = system: HT-29
[10] = system: COLO 205
[11] = system: SK-MEL-28
[12] = system: HCT-116
[13] = system: MOLT-4
[14] = system: SF-539
[15] = system: A549
[16] = system: MDA-MB-435
[17] = system: SNB-75
[18] = system: IGROV-1
[19] = system: MDA-MB-231
[20] = system: HCC 2998

Structure (SMILES) | GI50 [1] | GI50 [2] | GI50 [3] | GI50 [4] | GI50 [5] | GI50 [6] | GI50 [7] | GI50 [8] | GI50 [9] | GI50 [10] | GI50 [11] | GI50 [12] | GI50 [13] | GI50 [14] | GI50 [15] | GI50 [16] | GI50 [17] | GI50 [18] | GI50 [19] | GI50 [20]
C(=C\Nc1ccc(-c2ccccc2)cc1)/C=N/c1ccc(-c2ccccc2)cc1 | > 100 µM (inactive) | > 100 µM (inactive) | > 100 µM (inactive) | > 100 µM (inactive) | > 100 µM (inactive) | > 100 µM (inactive) | > 100 µM (inactive) | > 100 µM (inactive) | > 100 µM (inactive) | > 100 µM (inactive) | > 100 µM (inactive) | > 100 µM (inactive) | > 100 µM (inactive) | > 100 µM (inactive) | > 100 µM (inactive) | > 100 µM (inactive) | > 100 µM (inactive) | > 100 µM (inactive) | 79.8 µM (inactive) | 
C=CCC1(C#N)C(=S)NC2=C(C(=O)CC(C)(C)C2)C1c1ccccc1 (centres undefined) | 45.6 µM (inactive) |  |  |  | 35.1 µM (inactive) | 46.8 µM (inactive) | 35.9 µM (inactive) | 31 µM (inactive) | 34.6 µM (inactive) | > 100 µM (inactive) | 61.8 µM (inactive) | 59.4 µM (inactive) | 74.1 µM (inactive) | 77.8 µM (inactive) | 33.8 µM (inactive) | 33 µM (inactive) | 27 µM (inactive) | 55.1 µM (inactive) | 36.7 µM (inactive) | 
CSc1cc(Cl)c(C)cc1S(=O)(=O)NC(=O)NNc1cccc(C(F)(F)F)n1 | > 100 µM (inactive) | > 100 µM (inactive) | > 100 µM (inactive) |  |  | > 100 µM (inactive) | > 100 µM (inactive) | > 100 µM (inactive) | > 100 µM (inactive) | > 100 µM (inactive) | > 100 µM (inactive) | > 100 µM (inactive) | 20.9 µM (inactive) | 51.8 µM (inactive) | > 100 µM (inactive) | > 100 µM (inactive) | 91.8 µM (inactive) | > 100 µM (inactive) | > 100 µM (inactive) | > 100 µM (inactive)
S=C(NCCc1ccccn1)N/N=C/c1ccccn1 | 0.182 µM (active) | 0.964 µM (active) | 0.0149 µM (active) | < 0.0113 µM (active) |  | 0.0457 µM (active) | 0.0653 µM (active) | 0.519 µM (active) |  | < 0.01 µM (active) | 1.87 µM (inactive) | < 0.01 µM (active) | < 0.0108 µM (active) | 0.127 µM (active) | 0.578 µM (active) | 4.09 µM (inactive) | 9.35 µM (inactive) | < 0.01 µM (active) | < 0.01 µM (active) | 3.06 µM (inactive)
O=C(c1cccs1)N1CCc2ccccc2C1 | 62.4 µM (inactive) | > 100 µM (inactive) | > 100 µM (inactive) | > 100 µM (inactive) | 26.6 µM (inactive) | > 100 µM (inactive) | > 100 µM (inactive) |  | > 100 µM (inactive) | > 100 µM (inactive) | > 100 µM (inactive) | 38.2 µM (inactive) | > 100 µM (inactive) | > 100 µM (inactive) | > 100 µM (inactive) | 33.3 µM (inactive) |  | > 100 µM (inactive) | > 100 µM (inactive) | > 100 µM (inactive)
CCOC(=O)c1cc(C2(O)CCN(Cc3ccccc3)C2=O)c(-c2cc(C)no2)[nH]1 (centres undefined) | 40 µM (inactive) | 25.6 µM (inactive) | 64.7 µM (inactive) | 75.9 µM (inactive) |  | 48.8 µM (inactive) | 60.3 µM (inactive) | 30.3 µM (inactive) |  | 56.8 µM (inactive) | 59.6 µM (inactive) | 37.9 µM (inactive) | 12.6 µM (inactive) | 89.7 µM (inactive) | 40.1 µM (inactive) | 36.7 µM (inactive) | 26.6 µM (inactive) | 46.7 µM (inactive) | 29 µM (inactive) | 92.9 µM (inactive)
O=S1(=O)OCCOS(=O)(=O)C1S(=O)(=O)c1cccc2ccccc12 | > 100 µM (inactive) | > 100 µM (inactive) | > 100 µM (inactive) | > 100 µM (inactive) | > 100 µM (inactive) | > 100 µM (inactive) | 99.5 µM (inactive) | > 100 µM (inactive) | 52.7 µM (inactive) | > 100 µM (inactive) | > 100 µM (inactive) | 24 µM (inactive) | > 100 µM (inactive) |  | > 100 µM (inactive) | > 100 µM (inactive) |  | > 100 µM (inactive) | > 100 µM (inactive) | > 100 µM (inactive)
COc1ccc(-n2c(=O)n(C)c(=O)n2-c2ccc(OC)cc2)cc1 | > 100 µM (inactive) | > 100 µM (inactive) | > 100 µM (inactive) | > 100 µM (inactive) | > 100 µM (inactive) | > 100 µM (inactive) | > 100 µM (inactive) |  | > 100 µM (inactive) | > 100 µM (inactive) | > 100 µM (inactive) | 98.6 µM (inactive) | > 100 µM (inactive) | > 100 µM (inactive) | > 100 µM (inactive) | > 100 µM (inactive) | 56.6 µM (inactive) | > 100 µM (inactive) | > 100 µM (inactive) | 
CCCCCCCCCCCCCCCCNC(=O)/C(O)=C/C(=O)c1ccc(C)cc1 | > 10 µM (inactive) | > 10 µM (inactive) | > 10 µM (inactive) | > 10 µM (inactive) |  | > 10 µM (inactive) | > 10 µM (inactive) | > 10 µM (inactive) | > 10 µM (inactive) | > 10 µM (inactive) | > 10 µM (inactive) |  | > 10 µM (inactive) | > 10 µM (inactive) |  | > 10 µM (inactive) | > 10 µM (inactive) | > 10 µM (inactive) | > 10 µM (inactive) | > 10 µM (inactive)
CN(C)CCCn1cnc2cc(Cl)c(Cl)cc21 | 53.1 µM (inactive) | > 100 µM (inactive) | > 100 µM (inactive) | 19.8 µM (inactive) |  | > 100 µM (inactive) | 59.6 µM (inactive) | > 100 µM (inactive) | 72.3 µM (inactive) | 79.3 µM (inactive) | 17.9 µM (inactive) | 48 µM (inactive) |  |  | > 100 µM (inactive) | 55.8 µM (inactive) | 33.1 µM (inactive) | 56.4 µM (inactive) | > 100 µM (inactive) | 22 µM (inactive)
O=C(OCc1ccccc1)N1CCNCCN(C(=O)OCc2ccccc2)CCNCC1 | 13.4 µM (inactive) | 23.9 µM (inactive) | 16.9 µM (inactive) | 21.4 µM (inactive) | 21.1 µM (inactive) | 20.1 µM (inactive) | 18.3 µM (inactive) | 40.4 µM (inactive) | 17.7 µM (inactive) |  | 19.5 µM (inactive) | 16.2 µM (inactive) | 18 µM (inactive) | 14.6 µM (inactive) | 63.2 µM (inactive) | 24 µM (inactive) | 25.6 µM (inactive) | 32.2 µM (inactive) | 1.82 µM (inactive) | 
CC(=O)OCC1OC(SC2=N/C(=C\c3ccc(Br)s3)C(=O)N2CN2CCOCC2)C(OC(C)=O)C(OC(C)=O)C1OC(C)=O (centres undefined) | 19.1 µM (inactive) | 19.5 µM (inactive) | 23 µM (inactive) | 16.6 µM (inactive) |  | 0.383 µM (active) | 16.7 µM (inactive) | 29.4 µM (inactive) | 15.5 µM (inactive) | 18.8 µM (inactive) | 15.7 µM (inactive) | 13.9 µM (inactive) | 20 µM (inactive) |  |  | 23.8 µM (inactive) | 25.4 µM (inactive) | 16.8 µM (inactive) | 26.7 µM (inactive) | 19.8 µM (inactive)
N#Cc1c(-c2ccc(Cl)cc2)cc(-c2ccc(Nc3ccnc4cc(C(F)(F)F)ccc34)cc2)nc1N | 25.3 µM (inactive) | 19.3 µM (inactive) | 19.7 µM (inactive) | > 100 µM (inactive) |  | 27.8 µM (inactive) | 15 µM (inactive) | 17.9 µM (inactive) | 16.6 µM (inactive) | 29.4 µM (inactive) | 22.1 µM (inactive) | 10.6 µM (inactive) | 14.6 µM (inactive) | 18.5 µM (inactive) | 83.4 µM (inactive) | 19.5 µM (inactive) | 23 µM (inactive) | 29.2 µM (inactive) | 28.7 µM (inactive) | 64.3 µM (inactive)
COC(=O)/C=C(\CC(=O)OC)n1nnnc1[C@@H]1C[C@H](COC(c2ccccc2)(c2ccccc2)c2ccccc2)[C@H]2OC(C)(C)O[C@H]21 | 76.7 µM (inactive) | > 100 µM (inactive) | > 100 µM (inactive) | > 100 µM (inactive) | > 100 µM (inactive) | > 100 µM (inactive) | > 100 µM (inactive) | > 100 µM (inactive) | > 100 µM (inactive) | 39.3 µM (inactive) | > 100 µM (inactive) | 89.1 µM (inactive) | > 100 µM (inactive) | > 100 µM (inactive) | > 100 µM (inactive) | > 100 µM (inactive) | 37.2 µM (inactive) | 60.5 µM (inactive) | > 100 µM (inactive) | 
Nc1cc2ncnc(Nc3cccc(Br)c3)c2cn1 | 42.7 µM (inactive) | 26.9 µM (inactive) | 29.4 µM (inactive) | 39.9 µM (inactive) | 26.4 µM (inactive) | 19.8 µM (inactive) | 19.5 µM (inactive) | 39.9 µM (inactive) | 31.4 µM (inactive) | 50.4 µM (inactive) | 71.9 µM (inactive) | 49.5 µM (inactive) | > 100 µM (inactive) | 21.9 µM (inactive) | 35.9 µM (inactive) | 54.3 µM (inactive) | 33.7 µM (inactive) | > 10 µM (inactive) | 45.2 µM (inactive) | 
